Activity calls are given as the source filed them. The rule behind the calls is not given here.
Experiments:
NCI/ADR-RES [1] = test: Cytotoxicity against human MCF7ADR cells assessed as cell survival rate at 5 uM incubated for 48 hrs by CCK8 assay relative to control; type: functional
NCI/ADR-RES [2] = test: Cytotoxicity against human MCF7ADR cells assessed as cell survival rate at 1 uM incubated for 48 hrs by CCK8 assay relative to control; type: functional
NCI/ADR-RES [3] = test: Reversal activity against doxorubicin-mediated resistance in human MCF7ADR cells assessed as reversal fold by measuring ratio of doxorubicin IC50 to doxorubicin IC50 in presence of test compound at 1 uM incubated for 48 hrs by CCK8 assay; type: functional
MCF7 [4] = test: Antitumor activity against human MCF7 cells incubated for 48 hrs by CCK8 assay; type: functional, cell-based; settings: MCF7, 48 h
NCI/ADR-RES [5] = test: Reversal activity against doxorubicin-mediated resistance in human MCF7ADR cells assessed as reversal fold by measuring ratio of doxorubicin IC50 to doxorubicin IC50 in presence of test compound at 5 uM incubated for 48 hrs by CCK8 assay; type: functional
[6] = Toxicity in nude BALB/c mouse xenografted with human MCF7ADR cells assessed as body weight loss at 3 mg/kg, ip for 14 days administered every 2 days; type: organism-based; settings: in vivo, 336 h, time 14 day
[7] = Toxicity in nude BALB/c mouse xenografted with human MCF7ADR cells assessed as pathological change in spleen at 3 mg/kg, ip for 14 days administered every 2 days by H and E staining based analysis; type: organism-based; settings: in vivo, 336 h, time 14 day
[8] = Toxicity in nude BALB/c mouse xenografted with human MCF7ADR cells assessed as reduction in liver volume at 3 mg/kg, ip for 14 days administered every 2 days by H and E staining based analysis; type: organism-based; settings: in vivo, 336 h, time 14 day
[9] = Toxicity in nude BALB/c mouse xenografted with human MCF7ADR cells assessed as hyperplasia in spleen at 3 mg/kg, ip for 14 days administered every 2 days by H and E staining based analysis; type: organism-based; settings: in vivo, 336 h, time 14 day
[10] = Toxicity in nude BALB/c mouse xenografted with human MCF7ADR cells assessed as increase in nuclear density in liver at 3 mg/kg, ip for 14 days administered every 2 days by H and E staining based analysis; type: organism-based; settings: in vivo, 336 h, time 14 day
[11] = Toxicity in nude BALB/c mouse xenografted with human MCF7ADR cells assessed as reduction in spleen volume at 3 mg/kg, ip for 14 days administered every 2 days by H and E staining based analysis; type: organism-based; settings: in vivo, 336 h, time 14 day
[12] = Toxicity in nude BALB/c mouse xenografted with human MCF7ADR cells assessed as increase in nuclear density in kidney at 3 mg/kg, ip for 14 days administered every 2 days by H and E staining based analysis; type: organism-based; settings: in vivo, 336 h, time 14 day
[13] = target: T1, ATP-dependent translocase ABCB1 (Homo sapiens, UniProt P08183); test: Inhibition of P-gp in human MCF7ADR cells assessed as increase in Rh123 accumulation at 0.1 to 10 uM incubated for 4 hrs by flow cytometry; type: cell-based; settings: dose 0.1-10 µM
NCI/ADR-RES [14] = test: Antitumor activity against human MCF7ADR cells xenografted in nude BALB/c mouse assessed as tumor weight reduction at 10 mg/kg, ip for 14 days administered every 2 days; type: functional, organism-based; settings: time 14.0 day
NCI/ADR-RES [15] = test: Reversal activity against daunorubicin-mediated resistance in human MCF7ADR cells assessed as reversal fold by measuring ratio of daunorubicin IC50 to daunorubicin IC50 in presence of test compound at 5 uM incubated for 48 hrs by CCK8 assay; type: functional
NCI/ADR-RES [16] = test: Antitumor activity against human MCF7ADR cells xenografted in nude BALB/c mouse assessed as tumor volume reduction at 10 mg/kg, ip for 14 days administered every 2 days; type: functional, organism-based; settings: time 14.0 day
NCI/ADR-RES [17] = test: Reversal activity against doxorubicin-mediated resistance in 3D spheroid model of human MCF7ADR cells assessed as reduction in tumor spheroid volume at 5 uM incubated for 9 days by inverted microscopy; type: functional, cell-based; settings: time 9.0 day
[18] = Toxicity in nude BALB/c mouse xenografted with human MCF7ADR cells assessed as morphological change in spleen at 10 mg/kg, ip for 14 days administered every 2 days by H and E staining based analysis; type: organism-based; settings: in vivo, 336 h, time 14 day
NCI/ADR-RES [19] = test: Reversal activity against doxorubicin-mediated resistance in human MCF7ADR cells xenografted in nude BALB/c mouse at 10 mg/kg, ip for 14 days administered every 2 days; type: functional, organism-based; settings: time 14.0 day
NCI/ADR-RES [20] = test: Reversal activity against doxorubicin-mediated resistance in human MCF7ADR cells assessed as reversal fold by measuring ratio of doxorubicin IC50 to doxorubicin IC50 in presence of test compound at 0.1 uM incubated for 48 hrs by CCK8 assay; type: functional
[21] = Toxicity in nude BALB/c mouse xenografted with human MCF7ADR cells assessed as morphological change in kidney at 10 mg/kg, ip for 14 days administered every 2 days by H and E staining based analysis; type: organism-based; settings: in vivo, 336 h, time 14 day
[22] = Toxicity in nude BALB/c mouse xenografted with human MCF7ADR cells assessed as morphological change in liver at 10 mg/kg, ip for 14 days administered every 2 days by H and E staining based analysis; type: organism-based; settings: in vivo, 336 h, time 14 day
[23] = Toxicity in nude BALB/c mouse xenografted with human MCF7ADR cells assessed as morphological change in heart at 10 mg/kg, ip for 14 days administered every 2 days by H and E staining based analysis; type: organism-based; settings: in vivo, 336 h, time 14 day
NCI/ADR-RES [24] = test: Reversal activity against doxorubicin-mediated resistance in human MCF7ADR cells assessed as reversal fold by measuring ratio of doxorubicin IC50 to doxorubicin IC50 in presence of test compound at 0.5 uM incubated for 48 hrs by CCK8 assay; type: functional
[25] = Toxicity in nude BALB/c mouse xenografted with human MCF7ADR cells assessed as morphological change in lung at 10 mg/kg, ip for 14 days administered every 2 days by H and E staining based analysis; type: organism-based; settings: in vivo, 336 h, time 14 day
MCF7 [26] = test: Cytotoxicity against human MCF7 cells assessed as cell survival rate at 5 uM incubated for 48 hrs by CCK8 assay relative to control; type: functional
[27] = Toxicity in nude BALB/c mouse xenografted with human MCF7ADR cells assessed as body weight loss at 10 mg/kg, ip for 14 days administered every 2 days; type: organism-based; settings: in vivo, 336 h, time 14 day
NCI/ADR-RES [28] = test: Antitumor activity against human MCF7ADR cells xenografted in nude BALB/c mouse assessed as tumor size reduction at 10 mg/kg, ip for 14 days administered every 2 days; type: functional, organism-based; settings: time 14.0 day
NCI/ADR-RES [29] = test: Reversal activity against vincristine-mediated resistance in human MCF7ADR cells assessed as reversal fold by measuring ratio of vincristine IC50 to vincristine IC50 in presence of test compound at 5 uM incubated for 48 hrs by CCK8 assay; type: functional
NCI/ADR-RES [30] = test: Downregulation of P-gp expression in human MCF7ADR cells at 0.1 to 10 uM incubated for 48 hrs by Western blot analysis; type: functional, cell-based; settings: dose 0.1-10 µM
[31] = target: T1, ATP-dependent translocase ABCB1; test: Inhibition of P-gp in human MCF7ADR cells assessed as increase in Rh123 accumulation at 0.1 to 10 uM incubated for 4 hrs by fluorescence microscopy; type: cell-based; settings: dose 0.1-10 µM
NCI/ADR-RES [32] = test: Reversal activity against paclitaxel-mediated resistance in human MCF7ADR cells assessed as reversal fold by measuring ratio of paclitaxel IC50 to paclitaxel IC50 in presence of test compound at 5 uM incubated for 48 hrs by CCK8 assay; type: functional
[33] = Toxicity in nude BALB/c mouse xenografted with human MCF7ADR cells assessed as body weight loss at 10 mg/kg, ip for 14 days administered every 2 days in presence of doxorubicin; type: organism-based; settings: in vivo, 336 h, time 14 day

T1 sequence (P08183 whole entry): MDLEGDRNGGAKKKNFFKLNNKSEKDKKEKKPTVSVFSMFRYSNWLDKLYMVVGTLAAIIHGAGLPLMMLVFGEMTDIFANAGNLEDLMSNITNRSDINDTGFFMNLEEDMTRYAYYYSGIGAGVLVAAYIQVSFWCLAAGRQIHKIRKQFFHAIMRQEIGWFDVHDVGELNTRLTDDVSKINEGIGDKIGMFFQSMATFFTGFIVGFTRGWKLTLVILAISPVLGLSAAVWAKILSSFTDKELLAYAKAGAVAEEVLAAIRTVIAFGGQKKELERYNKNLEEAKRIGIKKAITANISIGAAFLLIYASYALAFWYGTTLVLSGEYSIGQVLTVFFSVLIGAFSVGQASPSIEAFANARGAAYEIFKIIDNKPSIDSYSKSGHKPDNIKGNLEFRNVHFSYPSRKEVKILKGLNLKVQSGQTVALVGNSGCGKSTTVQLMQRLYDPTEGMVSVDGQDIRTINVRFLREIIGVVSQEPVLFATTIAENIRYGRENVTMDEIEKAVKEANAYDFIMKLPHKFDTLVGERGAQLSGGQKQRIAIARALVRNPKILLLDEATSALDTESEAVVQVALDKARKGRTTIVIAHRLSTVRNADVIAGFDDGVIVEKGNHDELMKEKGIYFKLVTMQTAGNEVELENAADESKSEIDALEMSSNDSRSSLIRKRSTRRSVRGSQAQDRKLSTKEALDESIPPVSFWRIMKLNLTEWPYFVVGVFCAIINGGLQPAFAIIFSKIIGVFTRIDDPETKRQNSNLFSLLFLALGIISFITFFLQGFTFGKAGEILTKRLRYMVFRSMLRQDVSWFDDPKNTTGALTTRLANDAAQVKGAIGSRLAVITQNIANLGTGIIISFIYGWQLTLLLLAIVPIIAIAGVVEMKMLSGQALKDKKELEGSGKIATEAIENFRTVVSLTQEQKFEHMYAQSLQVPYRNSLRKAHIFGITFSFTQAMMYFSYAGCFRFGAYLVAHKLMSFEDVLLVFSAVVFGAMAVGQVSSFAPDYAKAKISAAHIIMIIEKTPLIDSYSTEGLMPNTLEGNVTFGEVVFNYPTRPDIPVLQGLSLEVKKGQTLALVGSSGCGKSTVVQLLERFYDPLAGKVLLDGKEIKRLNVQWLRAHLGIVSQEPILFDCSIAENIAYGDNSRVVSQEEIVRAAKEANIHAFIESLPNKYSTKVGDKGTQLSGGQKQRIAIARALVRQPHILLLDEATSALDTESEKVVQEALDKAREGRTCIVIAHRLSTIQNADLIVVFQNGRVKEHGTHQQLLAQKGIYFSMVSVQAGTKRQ

COc1cc2c(cc1OC)CN(C(=O)c1ccc(-c3ccc(NC(=O)c4cccnc4)cc3)o1)CC2
Activity (NCI/ADR-RES [1]): 14.7%
Activity (NCI/ADR-RES [2]): 72.4%
fold change (FC) (NCI/ADR-RES [3]): 2.2

COc1cc2c(cc1OC)CN(C(=O)c1ccc(-c3ccc(NC(=O)c4ccco4)cc3)o1)CC2
Activity (NCI/ADR-RES [1]): 11.3%
Activity (NCI/ADR-RES [2]): 80.6%

COc1cccc2c1C(=O)c1c(O)c3c(c(O)c1C2=O)C[C@@](O)(C(C)=O)C[C@@H]3O[C@H]1C[C@H](N)[C@H](O)[C@H](C)O1 [DAUNORUBICIN]
IC50 (MCF7 [4]): 980 nM

COc1cc2c(cc1OC)CN(C(=O)c1ccc(-c3ccc(NC(=O)c4cccs4)cc3)o1)CC2
Activity (NCI/ADR-RES [1]): 26%
Activity (NCI/ADR-RES [2]): 92.3%

CC(=O)O[C@H]1C(=O)[C@@]2(C)[C@H]([C@H](OC(=O)c3ccccc3)[C@]3(O)C[C@H](OC(=O)[C@H](O)[C@@H](NC(=O)c4ccccc4)c4ccccc4)C(C)=C1C3(C)C)[C@]1(OC(C)=O)CO[C@@H]1C[C@@H]2O [PACLITAXEL]
IC50 (MCF7 [4]): 550 nM

COc1cc2c(cc1OC)CN(C(=O)c1ccc(-c3ccc(NC(=O)c4ccccc4)cc3)o1)CC2
Activity (NCI/ADR-RES [1]): 73.5%
fold change (FC) (NCI/ADR-RES [5]): 221.1
fold change (FC) (NCI/ADR-RES [3]): 5.3

COc1cccc2c1C(=O)c1c(O)c3c(c(O)c1C2=O)C[C@@](O)(C(=O)CO)C[C@@H]3O[C@H]1C[C@H](N)[C@H](O)[C@H](C)O1 [DOXORUBICIN]
Activity [6]: Toxic
Activity [7]: Toxic
Activity [8]: Toxic
Activity [9]: Toxic
Activity [10]: Toxic
Activity [11]: Toxic
Activity [12]: Toxic

CC[C@]1(O)C[C@H]2CN(CCc3c([nH]c4ccccc34)[C@@](C(=O)OC)(c3cc4c(cc3OC)N(C=O)[C@H]3[C@@](O)(C(=O)OC)[C@H](OC(C)=O)[C@]5(CC)C=CCN6CC[C@]43[C@@H]65)C2)C1 [VINCRISTINE]
IC50 (MCF7 [4]): 900 nM

COc1cc2c(cc1OC)CN(C(=O)c1ccc(-c3cccc(NC(=O)c4ccco4)c3)o1)CC2
Activity (NCI/ADR-RES [1]): 75.9%
fold change (FC) (NCI/ADR-RES [5]): 30.4
fold change (FC) (NCI/ADR-RES [3]): 5.2

COc1ccc(C(=O)Nc2ccc(-c3ccc(C(=O)N4CCc5cc(OC)c(OC)cc5C4)o3)cc2)cc1
Activity (NCI/ADR-RES [1]): 80.1%
inhibition (INH) [13]: Dose-Dependent Effect
Activity (NCI/ADR-RES [14]): inactive
fold change (FC) (NCI/ADR-RES [15]): 143.4
Activity (NCI/ADR-RES [16]): inactive
Activity (NCI/ADR-RES [17]): Active
Activity [18]: Non-Toxic
Activity (NCI/ADR-RES [19]): Active
fold change (FC) (NCI/ADR-RES [20]): 3.3
Activity [21]: Non-Toxic
Activity [22]: Non-Toxic
Activity [23]: Non-Toxic
fold change (FC) (NCI/ADR-RES [5]): 565
fold change (FC) (NCI/ADR-RES [24]): 8.8
Activity [25]: Non-Toxic
Activity (MCF7 [26]): 80.4%
Activity [27]: Non-Toxic
fold change (FC) (NCI/ADR-RES [3]): 110.5
Activity (NCI/ADR-RES [28]): inactive
fold change (FC) (NCI/ADR-RES [29]): 18.9
Activity (NCI/ADR-RES [30]): inactive
inhibition (INH) [31]: Dose-Dependent Effect
fold change (FC) (NCI/ADR-RES [32]): 158.6
Activity [33]: Toxic

COc1cc2c(cc1OC)CN(C(=O)c1ccc(-c3ccc(NC(=O)c4c(F)c(F)c(F)c(F)c4F)cc3)o1)CC2
Activity (NCI/ADR-RES [1]): 98.2%
fold change (FC) (NCI/ADR-RES [5]): 45.4
Activity (MCF7 [26]): 92.4%

COc1cccc(C(=O)Nc2ccc(-c3ccc(C(=O)N4CCc5cc(OC)c(OC)cc5C4)o3)cc2)c1
Activity (NCI/ADR-RES [1]): 77.1%
fold change (FC) (NCI/ADR-RES [5]): 97.8
Activity (MCF7 [26]): 81.2%

COc1cccc(C(=O)Nc2cccc(-c3ccc(C(=O)N4CCc5cc(OC)c(OC)cc5C4)o3)c2)c1
Activity (NCI/ADR-RES [1]): 75%
fold change (FC) (NCI/ADR-RES [5]): 59.8
Activity (MCF7 [26]): 59.4%

COc1ccc(C(=O)Nc2cccc(-c3ccc(C(=O)N4CCc5cc(OC)c(OC)cc5C4)o3)c2)cc1
Activity (NCI/ADR-RES [1]): 62.1%
fold change (FC) (NCI/ADR-RES [5]): 72.6
Activity (MCF7 [26]): 32.4%

COc1cc2c(cc1OC)CN(C(=O)c1ccc(-c3cccc(NC(=O)c4ccccc4[N+](=O)[O-])c3)o1)CC2
Activity (NCI/ADR-RES [1]): 62.6%
fold change (FC) (NCI/ADR-RES [5]): 19.5
Activity (MCF7 [26]): 73.4%

From ChEMBL document CHEMBL5620359, “Discovery of 2,5-disubstituted furan derivatives featuring a benzamide motif for overcoming P-glycoprotein mediated multidrug resistance in MCF-7/ADR cell” (Eur J Med Chem, 2023)
